# Data published in patent US20090012136A1, “UNIT DOSE FORMULATIONS AND METHODS OF TREATING AND PREVENTING THROMBOSIS WITH THROMBOXANE RECEPTOR ANTAGONISTS” (PORTOLA PHARMACEUTICALS, INC., priority 2007, published 2009).
# Key:
# platelets [1] = test: Collagen-induced platelet aggregation by light transmittance aggregometry (LTA) in PRP (Example 1); type: cell-based, human
# Description: (§1) Blood from healthy individuals (n=6-7) was obtained by venipuncture and anticoagulated with FXa inhibitor. Platelet rich plasma (PRP) was obtained, and LTA was performed by standard procedures, initiating platelet aggregation with U-46619 (10 μM) or collagen (4 μg/ml).
# LTA was performed on PRP samples using collagen (4 micrograms/ml) to induce platelet aggregation.
# [2] = hundreds of randomized clinical trials; BMJ 324:71-86 (2002); cited from earlier work
# platelets [3] = test: U-46619-induced platelet aggregation by light transmittance aggregometry (LTA) in PRP; type: cell-based, human
# Description: as §1
# platelets [4] = test: Real time perfusion chamber assay, blood perfused through collagen-coated capillaries (Example 1); type: cell-based, human; details: non-aspirinated blood, ifetroban added in vitro; aspirin 325 mg per day for 2 weeks; FIG. 3
# platelets [5] = test: Real time perfusion chamber assay (RTTP), healthy volunteers and AERD patients (Example 2); type: cell-based, human; details: 100 nM or 350 nM spiked in vitro
# Description: Real time perfusion chamber assays (RTTP) were performed using blood anticoagulated with Fxa inhibitor (10 uM 034) and perfused through collagen-coated capillaries (1100/sec). Thrombus formation on the collagen surface was monitored in real time using fluorescence microscopy to detect fluorescently labeled (R6G) platelets.
# (§2) Assays were performed pre- (+/−ifetroban, spiked in vitro) and post-aspirin desensitization.
# platelets [6] = test: Collagen-induced platelet aggregation LTA, healthy volunteers and AERD patients (Example 2); type: cell-based, human; details: for anti-aggregatory activity in collagen-induced platelet aggregation assay: FIG. 5
# Description: (§3) Light transmittance aggregometry (LTA) assays were performed by standard procedures, initiating platelet aggregation with collagen or arachidonic acid.
# as §2
# platelets [7] = test: Arachidonic acid-induced platelet aggregation LTA (Example 2); type: cell-based, human; details: all three tested doses (1 μM, 350 nM, 100 nM); healthy volunteers and AERD patients; FIGS. 7A and 7B
# Description: as §3, §2
Compound,"reduction of the extent of collagen-induced platelet aggregation v. baseline (mean+sem) (platelets [1]; twenty healthy individuals, aspirin 325 mg/day for two weeks, collagen 4 micrograms/ml, PRP)",reduction in adverse events [2],"concentration that fully inhibited U-46619-induced platelet aggregation (platelets [3]; U-46619 10 μM, PRP anticoagulated with FXa inhibitor, ifetroban added in vitro, FIG. 2) [nM]",concentration predicted by U-46619-induced platelet aggregation assays (platelets [3]; U-46619-induced platelet aggregation) [nM],concentration in collagen-induced assay relative to that predicted by U-46619-induced assay (platelets [1]; 350 nM v. 30 nM),"concentration for maximum inhibition of collagen-induced platelet aggregation (platelets [1]; collagen 4 μg/ml, non-aspirinated PRP, ifetroban added in vitro, FIG. 2)",amount required to inhibit collagen-induced versus U-46619-induced platelet aggregation (platelets [1]; collagen versus U-46619),concentration providing equivalent or superior inhibitory activity on thrombosis as aspirin (platelets [4]) [nM],"antithrombotic activity in perfusion chamber assay (platelets [5]; AERD patients, FIG. 4B)","antithrombotic activity in perfusion chamber assay (platelets [5]; healthy volunteers, FIG. 4A)",anti-aggregatory activity in collagen-induced platelet aggregation assay (platelets [6]; AERD patients),"concentration reproducing aspirin effects on collagen-induced platelet aggregation and thrombosis (platelets [6]; AERD patients, FIG. 5B) [nM]","concentration showing statistically significant inhibition of collagen-induced platelet aggregation (platelets [6]; AERD patients, FIG. 5B) [nM]","inhibition of platelet aggregation compared with aspirin (platelets [6]; healthy volunteers, 100 nM ifetroban)",anti-aggregatory activity in collagen-induced platelet aggregation assay (platelets [6]; healthy volunteers),"concentration showing statistically significant inhibition of collagen-induced platelet aggregation (platelets [6]; normal volunteers (P=0.0281), FIG. 5A) [nM]","concentration reproducing aspirin effects on collagen-induced platelet aggregation and thrombosis (platelets [6]; normal volunteers, FIG. 5A) [nM]",effect on arachidonic acid-induced platelet aggregation (platelets [7])
CC(=O)Oc1ccccc1C(=O)O [aspirin],39+/−6.0%,20-25%,,,,,,,,,,,,,,,,
"CCCCCNC(=O)c1coc([C@H]2[C@@H](Cc3ccccc3CCC(=O)[O-])[C@@H]3CC[C@H]2O3)n1.[Na+] [ifetroban, [1S-(1α,2α,3α,4α)]-2-[[3-[4-[(pentylamino)carbonyl]-2-oxazolyl]-7-oxabicyclo[2.2.1]hept-2-yl]methyl]benzenepropanoic acid]",,,> 30,30,approximately 10 times,greater than or equal to 350 nM,approximately 10 fold,≥ 300,significant antithrombotic activity,significant antithrombotic activity,significant anti-aggregatory activity,> 100,> 100,significantly lower inhibition of platelet aggregation than aspirin,significant anti-aggregatory activity,> 100,> 100,fully blocked
